Key:
Cortical neurons = assay: Cisplatin Killing of Cortical Neurons; format: cell-based, Sprague-Dawley rats
Experimental: Cortical neurons were harvested from day E18 female Sprague-Dawley rats, plated on Poly-L-Lycine coated plates and incubated for 14 days at 37° C. under 5% CO2. […]

CGNs [1] = assay: Glutamate Killing of CGNs; format: cell-based, CD1 mice; settings: glutamate 100 uM
Text: Glutaminergic neurons secrete the neurotransmitter glutamate as a part of normal cell signaling processes. Intracellular glutamate levels are regulated by glial cell uptake and conversion to glutamine. Under conditions of oxidative stress, as observed in various neurodegenerative diseases such as stroke, ALS, PD, and HD, glutaminergic neurons release massive amounts of glutamate into the […] fluid, overwhelming the surrounding cells. Stimulation of both NMDA and non NMDA-type glutamate excitory receptors leads to sustained depolarization of postsynaptic dendrosomal membranes, increased membrane permeability, and impaired ion homeostasis, all leading to either apoptotic or necrotic cell death.
CGNs were harvested from day 8/9 post-natal CD1 mice, plated on Poly-D-Lycine coated plates and incubated for 6 days at 37° C. under 5% CO2. Cells were pretreated with drug 24 hours prior to glutamate (100 uM) and drug addition.

SHSY-5Y cells = assay: Etoposide Killing of SHSY-5Y; format: cell-based; settings: etoposide 32 uM, drug 1 μM
Experimental: SHSY-5Y cells were grown in growth media. Cells are placed at 50,000 cells per 96 well. Four days latter the cells were treated with drug for 48 hours prior to etoposide (32 uM) treatment. On day 6 media was changed to that containing etoposide and drug for 4 hours, at which point the media was changed to media containing drug only. Cells are allowed to survive overnight and then assessed for viability with metabolic activity measured (WST-1-Beohringer Mannheime), as shown in TABLE 13.

CGNs [2] = assay: Ceramide Killing of CGNs; format: cell-based, CD1 mice; settings: ceramide 100 uM
Text: Ceramide is a native […] found in most mammalian and human cells. The upregulation of endogenous ceramide has been linked to caspase 1 (ICE) induced apoptosis (Suzuki, A. et al. Exp. Cel. Res., 1997, 233, 41). In a similar fashion, the addition of ceramide to cultured CGNs results in caspase induced apoptosis, and is therefore considered an effective in vitro model for the various neurodegenerative diseases described above, which are characterized by caspase induced apoptosis, as observed in stroke models. Addition of selected compounds of the formula I through III, 24 hours prior to the addition of ceramide, to cultured CGNs provided protection against apoptosis, with 10 to 20% of the cells being saved at 1–10 μM drug concentrations (see Example 114).
CGNs were harvested from day 8/9 post-natal CD1 mice, plated on Poly-D-Lycine coated plates and incubated for 6 days at 37° C. under 5% CO2. Cells were pretreated with drug 24 hours prior to ceramide (100 uM) and drug addition.

CGNs [3] = assay: β-Amyloid Aggregation Assay in CGNs; format: cell-based; settings: for IC50: Aβ 25 μM, assayed 5 days after Aβ addition
Text: Various mechanisms have been put forward in order to account for the neurotoxicity related to extracellular Aβ fibril formation. […] Regardless of the mode of action, extracellular Aβ fibril formation acts as an effective apoptotic trigger for neuronal cells and serves as an in vitro model for various neurodegenerative diseases characterized by extracellular protein fibril formation, typified by diseases such as AD and PD.
CGNs were harvested from day 8/9 post-natal CD1 mice, plated on Poly-D-Lycine coated plates and incubated for 6 days at 37° C. under 5% CO2. Pretreated cells were treated with drug 24 hours prior to A-β (25 μM) and drug addition.

CGNs [4] = assay: High/Low Potassium (HK/LK) assay in CGNs; format: cell-based; settings: for IC50: Mus musculus, HK/LK switch, drug 24 h pre-treatment, assayed 16 h after media change, concentration at which cell death was inhibited by 50%
Experimental: Cultured CGNs which are maintained in a medium containing 26 mM potassium (high K^+ or HK) undergo cell death when the medium is changed to one containing 5 mM potassium (low K^+ or LK). HK maintains the cells in a highly polarized state, duplicating that of fully innervated neurons. The switch to LK (5 mM is more representative of physiological conditions) results in depolarization of the cells, mimicking the loss of neuronal conductivity. […] As these killer genes are turned on by various types of neuronal insult as observed in AD, PD, and stroke, HK/LK is a general in vitro model for neuronal degradation, blanketing a wide range of neurodegenerative diseases. Compounds that protect against HK/LK in CGNs would therefore be efficacious in treatment and/or prevention of various neurodegenerative disease states.
CGNs were harvested from day 8/9 post-natal CD1 mice, plated on Poly-D-Lycine coated plates and incubated for 6 days at 37° C., with […] potassium, under 5% CO2. Pretreated cells were treated with drug 24 hours prior to changing the media to one containing […] potassium and drug. Cells were assayed 16 hours after the final media change using cell TITER96 (Promega).

[5] = tested on: OV 2008 ovarian cancer cells; assay: Cisplatin induced apoptosis of OV 2008 ovarian cancer cells; format: cell-based; settings: cisplatin (20 μg/mL)
Text: Regardless of its neuroprotective capability, if a compound interferes with chemotherapy by protecting cancer cells from an apoptotic stimuli then the compound is of less value as an anti-cancer therapeutic.

CGNs [6] = assay: Cisplatin Killing of CGNs; format: cell-based, CD1 mice
Experimental: Cisplatin has been used extensively in the treatment of various cancers. One dosblimiting side effect of this chemotherapeutic agent is related to hearing loss as a result of its toxicity to auditory neurons and loss of feeling in the extremities. Cisplatin induces apoptosis to both cultured CGN and cortical neurons.
CGNs were harvested from day 8/9 post-natal CD1 mice, plated on Poly-D-Lycine coated plates and incubated for 6 days at 37° C. under 5% CO2. The cells were treated with media containing drug and cisplatin […].

SCG neurons = assay: NGF Withdrawal Killing of SCG Neurons; format: cell-based, Sprague-Dawley rats; settings: Rattus norvegicus, Neuron, assayed 48 hours after drug
Text: Cultured Superiour Cervical Ganglion (SCG) neurons of the PNS which have been sustained in media containing Neuron Growth Factor (NGF) undergo apoptotic cell death upon removal of the NGF from the cellular medium. Loss of neuronal trofin support has been implicated in various neurodegenerative disease states in the PNS, such as diabetic neuropathy and neuropahies related to chemotherapeutic and anti-HIV drug treatment.
SCG neurons were harvested from day 1 post natal Sprague-Dawley rats, plated on collagen coated plates and incubated for 5 days in the presence of 50 ng/mL NGF at 37° C. under 5% CO2. The cells were washed with NGF free media, 4 times at 1 hour intervals, at which time drug was added.

Caspase 3 = Caspase 3 induction during HK/LK killing of CGNs; format: cell-based, CD1 mice
Text: Caspase 3 induction ultimately leads to cell death and is observed in any number of neurodegenerative diseases. Compounds which inhibit caspase 3 induction represent potent therapies for various neurodegenerative diseases.

[7] = tested on: rat spinal cord ex-plants; assay: Spinal Cord Explant neurite extension; format: cell-based; settings: 3 μM; ex-plants on growth inhibitory substrates
Text: The inability of neurites to regenerate or overcome stimuli which inhibit or prevent the formation of normal neuritic extensions and connections is characteristic of the conditions found in spinal cord and related injuries, AD and the like. Select compounds of this invention promote the formation of neuritic extension in spinal cord ex-plants which have been cultured on growth inhibitory substrates.
Spinal cords from P1 rat pups were isolated for neurite extension analysis. Lumbar cord was separated in two along the spinal canal. […] lateral sections were obtained with a McIlwain tissue chopper. Slices were cultured in poly L-lysine coated 24 well plates in Neurobasal media supplemented with B27, penicillin, streptomycin, and glutamate. Test compounds were added to the media and neurite extension out of the explant onto the poly L-coated plastic was assessed after 7 days in culture. Neurites were visualized either by phase contrast microscopy or by beta 3 tubulin immunofluorescence.

CCSCc1ccc2c(c1)c1c3c(c4c5cc(CSCC)ccc5n5c4c1n2[C@H]1C[C@](O)(C(=O)OC)[C@]5(C)O1)CNC3=O [CEP 1347, reference compound]
% Protection (Cortical neurons; drug at 0.3 μM, cisplatin): 32%
% CGN Survival (CGNs [1]; 300 nM, (250 nM in source)): 50.0 (250 nM) %
% CGN Survival (CGNs [1]; drug 100 nM): 0%
% CGN Survival (CGNs [1]; drug 1 μM): 7.0%
% SHSY-5Y cell survival (SHSY-5Y cells): 12.5%
% CGN Survival (CGNs [2]; 300 nM, (250 nM in source)): 0 (250 nM) %
% CGN Survival (CGNs [2]; drug 1 μM): 1.8%
protection (CGNs [3]; concentrations below 300 nM): > 10%
IC50 (CGNs [4]): 1000 nM
toxicity (CGNs [4]; higher doses): toxic at higher doses

O=C1NC(=O)C2=C1c1c(n(CCO)c3ccc(OCc4ccccc4)cc13)C1Cc3ccccc3N21 (stereo not drawn) [Compound 36]
% Protection at 10 μM (Cortical neurons; drug 10 μM 24 h pre-treatment): 9%
protection of cancer cells from cisplatin induced apoptosis [5]: did not protect
survival (CGNs [6]; 300 nM drug, cisplatin): 80%
IC50 (CGNs [6]; cisplatin induced apoptosis in CGNs): 100 nM

O=C1NC(=O)c2c1c1c3ccccc3[nH]c1c1cc3ccccc3n21 [Compound 42]
IC50 (SCG neurons): 20000 nM
IC50 (CGNs [6]; Mus musculus, assayed 48 hours after final drug treatment): 3000 nM
% CGN Survival (CGNs [2]; drug 1 μM): 20.0%
% CGN Survival (CGNs [2]; drug 10 μM): 18.0%
IC50 (CGNs [3]; Mus musculus, 120 h): 1000 nM
IC50 (CGNs [4]): 3000 nM
inhibition at 10 µM (Caspase 3; Mus musculus): 50%

O=C1C=C(c2c[nH]c3ccc(OCc4ccccc4)cc23)C(=O)N1 [Compound 64, 3-(1-H-5-benzyloxyindol-3-yl)-1H-pyrrole-2,5-dione]
% CGN Survival (CGNs [1]; drug 100 nM): 0%
% CGN Survival (CGNs [1]; drug 1 μM): 4.0%
% CGN Survival (CGNs [1]; drug 10 μM): 32.5%
IC50 (CGNs [6]; assayed 48 hours after final drug treatment): 3000 nM
% CGN Survival (CGNs [2]; drug 1 μM): 18.0%
% CGN Survival (CGNs [2]; drug 10 μM): 5.1%
IC50 (CGNs [3]): 1000 nM
inhibition of caspase 3 induction (Caspase 3; 10 μM): 33%

O=C1NCC2=C1N1c3ccccc3CC1c1c2c2ccccc2n1CCCO (stereo not drawn) [Compound 176]
formation of neuritic extensions [7]: induce the formation of neuritic extensions
